Reference: PMC11520136, “Design, synthesis, and biological investigations of new pyrazole derivatives as VEGFR2/CDK-2 inhibitors targeting liver cancer” (BMC Chemistry, 2024)
Entries after “also recorded” stand apart in the source; their conditions may differ.

How the values were obtained:
[1] = test system: HepG2 cells; assay: MTT cytotoxicity assay against HepG2; type: cell-based; conditions: mean ± SD, n = 3
Procedure: (§1) The cell lines were supplemented with 10% fetal bovine serum (Sigma-Aldrich, MO, USA) and 1% penicillin–streptomycin. Compounds were added to the cells on the second day at doses of “0, 0.01, 0.1, 1, 10, and 100 μM”. Cell viability was assessed after 48 h using the MTT solution (Promega, USA).

[2] = test system: THLE2 cells; assay: MTT cytotoxicity assay against THLE2; type: cell-based; conditions: Homo sapiens, THLE-2, 48 h, normal liver cells, mean ± SD, n = 3
Procedure: as §1

[3] = target: T1, VEGFR2 kinase (Homo sapiens, UniProt P35968); assay: VEGFR2 (KDR) kinase assay kit; type: biochemical; conditions: for IC50: average of three independent replicates
T1 construct: purchased BPS Bioscience 40,325

[4] = target: T2, CDK-2 kinase (Homo sapiens, UniProt P24941); assay: CDK-2 luminescence kinase assay kit; type: biochemical; conditions: for IC50: average of three independent replicates
T2 construct: purchased Promega (so in the source) 79,599

[5] = test system: HepG2 cells; assay: Annexin V/PI staining flow cytometry (apoptosis/necrosis); type: cell-based; parameters: Apoptosis Total / Apoptosis Early / Apoptosis Late: unit not given here; conditions: for total apoptosis (overall apoptotic cell death): untreated control 0.95%; for Apoptosis Late: Cont.HepG2 0.23; for Apoptosis Early: Cont.HepG2 0.72; for Apoptosis Total: Cont.HepG2 2.47
Procedure: (§2) HepG2 cells (3–5 105 cells/well) were cultured onto 6-well culture plates and incubated overnight. […] The cells and medium supernatants were then washed with ice-cold PBS. After that, […] of annexin binding buffer solution was added to the cell suspension "25 mM CaCl2, 1.4 M NaCl, and 0.1 M Hepes/NaOH, pH 7.4″ and incubation with “Annexin V-FITC solution (1:100) and propidium iodide (PI)” at a concentration equals 10 µg/mL in the dark for 30 min. The Cytoflex FACS system was then used to acquire the stained cells. cytExpert was used for data analysis.

[6] = test system: HepG2 cells; assay: DNA content flow cytometry cell cycle analysis; type: cell-based; conditions: HepG2, IC50 values, 48 h; for DNA content %G2/M: control 20.6; for DNA content %S: control 37.59; for DNA content %G0-G1: control 41.81
Procedure: as §2
Kit used : ab139418_Propidium Iodide Flow Cytometry Kit/BD

[7] = test system: HepG2 liver cancer cells; parameters: method as in PMID 32559576, PMID 37234266, doi:10.1016/j.molstruc.2023.135765; conditions: Fig. 1; read-out: IC50 against HepG2 liver cancer cells; cited from earlier work
[8] = HepG2, at the IC50 values, 48 h
[9] = HepG2, at the IC50 values, 48 h, untreated control 1.52%
[10] = supplement lab report, HepG2, Cont.HepG2 1.52

T1 sequence (P35968 20-1356): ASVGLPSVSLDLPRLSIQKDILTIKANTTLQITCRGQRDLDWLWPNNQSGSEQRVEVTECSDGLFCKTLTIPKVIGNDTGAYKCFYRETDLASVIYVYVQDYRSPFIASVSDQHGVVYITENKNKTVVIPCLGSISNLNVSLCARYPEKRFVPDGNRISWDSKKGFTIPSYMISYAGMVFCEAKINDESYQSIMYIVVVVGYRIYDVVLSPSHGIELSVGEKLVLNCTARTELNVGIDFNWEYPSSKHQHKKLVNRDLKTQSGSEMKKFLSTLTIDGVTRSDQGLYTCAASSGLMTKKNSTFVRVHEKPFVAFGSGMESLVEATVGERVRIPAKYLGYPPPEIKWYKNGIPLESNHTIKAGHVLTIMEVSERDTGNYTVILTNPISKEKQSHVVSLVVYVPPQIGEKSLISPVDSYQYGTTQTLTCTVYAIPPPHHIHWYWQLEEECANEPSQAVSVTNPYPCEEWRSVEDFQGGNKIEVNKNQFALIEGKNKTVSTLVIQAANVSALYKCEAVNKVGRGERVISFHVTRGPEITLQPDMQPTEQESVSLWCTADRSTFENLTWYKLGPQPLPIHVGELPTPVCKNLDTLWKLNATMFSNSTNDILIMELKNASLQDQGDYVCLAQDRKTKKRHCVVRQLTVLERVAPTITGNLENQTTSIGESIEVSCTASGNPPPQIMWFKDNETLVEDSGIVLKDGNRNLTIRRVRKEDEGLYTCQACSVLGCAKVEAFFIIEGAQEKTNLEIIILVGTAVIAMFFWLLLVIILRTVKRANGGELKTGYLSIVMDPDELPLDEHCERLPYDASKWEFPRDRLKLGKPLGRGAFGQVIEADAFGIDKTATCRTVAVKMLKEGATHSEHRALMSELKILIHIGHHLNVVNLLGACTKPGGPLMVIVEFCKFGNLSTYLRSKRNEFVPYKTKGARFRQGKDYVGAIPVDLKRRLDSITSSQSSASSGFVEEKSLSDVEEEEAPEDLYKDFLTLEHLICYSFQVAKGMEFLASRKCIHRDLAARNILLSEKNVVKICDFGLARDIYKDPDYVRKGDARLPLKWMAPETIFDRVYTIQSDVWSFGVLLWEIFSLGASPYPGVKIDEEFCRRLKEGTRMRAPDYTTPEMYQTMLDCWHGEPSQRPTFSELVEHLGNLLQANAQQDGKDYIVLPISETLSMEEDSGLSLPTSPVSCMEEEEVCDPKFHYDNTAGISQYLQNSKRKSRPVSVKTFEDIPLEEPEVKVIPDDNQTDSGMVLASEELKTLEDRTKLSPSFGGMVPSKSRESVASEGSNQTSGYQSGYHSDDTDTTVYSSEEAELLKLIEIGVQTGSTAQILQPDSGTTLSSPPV

SMILES: CC1=NN(C(c2ccccc2)N2CCOCC2)C(=O)C1N=Nc1ccccc1 (stereo not drawn) [Compound 3a, 5-Methyl-2-(morpholino(phenyl)methyl)-4-(phenyldiazenyl)-2,4-dihydro-3H-pyrazol-3-one]
- IC50 ([1]; Homo sapiens, HepG2, 48 h): 33.9 ± 1.89 µM
- IC50 [2]: 41.2 ± 1.19 µM

SMILES: CC1=NN(C(c2ccccc2)N2CCOCC2)C(=O)C1N=Nc1ccccc1[N+](=O)[O-] (stereo not drawn) [Compound 3b, 5-Methyl-2-(morpholino(phenyl)methyl)-4-((2-nitrophenyl)diazenyl)-2,4-dihydro-3H-pyrazol-3-one]
- IC50 ([1]; Homo sapiens, HepG2, 48 h): 55.5 ± 3.1 µM
- IC50 [2]: 47.2 ± 1.85 µM

SMILES: CC1=NN(C(c2ccccc2)N2CCOCC2)C(=O)C1N=Nc1ccc(Cl)cc1 (stereo not drawn) [Compound 3c, 4-((4-Chlorophenyl)diazenyl)-5-methyl-2-(morpholino(phenyl)methyl)-2,4-dihydro-3H-pyrazol-3-one]
- IC50 [2]: 34.5 ± 2.1 µM

SMILES: CC1=NN(C(c2ccccc2)N2CCCCC2)C(=O)C1N=Nc1ccccc1 (stereo not drawn) [Compound 4a, 5-Methyl-2-(phenyl(piperidin-1-yl)methyl)-4-(phenyldiazenyl)-2,4-dihydro-3H -pyrazol-3-one]
- IC50 ([1]; 48 h): 4.43 ± 0.25 µM
- IC50 ([1]; Homo sapiens, HepG2, 48 h): 4.4 µM
- IC50 [2]: 27.3 ± 1.15 µM
- inhibition at 10 µM [3]: 90.5 ± 2.1%
- IC50 [3]: 0.55 ± 0.006 µM
- inhibition at 10 µM [4]: 90.9 ± 1.9%
- IC50 [4]: 0.205 ± 0.011 µM

SMILES: CC1=NN(C(c2ccccc2)N2CCCCC2)C(=O)C1N=Nc1ccccc1[N+](=O)[O-] (stereo not drawn) [Compound 4b, 5-Methyl-4-((2-nitrophenyl)diazenyl)-2-(phenyl(piperidin-1-yl)methyl)-2,4-dihydro-3H-pyrazol-3-one]
- IC50 ([1]; 48 h): 9.34 ± 0.52 µM
- IC50 ([1]; Homo sapiens, HepG2, 48 h): 9.33 µM
- IC50 [2]: 72.4 ± 2.15 µM

SMILES: CC1=NN(C(c2ccccc2)N2CCCCC2)C(=O)C1N=Nc1ccc(Cl)cc1 (stereo not drawn) [Compound 4c, 4-((4-Chlorophenyl)diazenyl)-5-methyl-2-(phenyl(piperidin-1-yl)methyl)-2,4-dihydro-3H-pyrazol-3-one]
- IC50 ([1]; Homo sapiens, HepG2, 48 h): 25.2 ± 1.41 µM
- IC50 [2]: 34.7 ± 1.05 µM

SMILES: Cc1nn(C(Nc2ccccc2)c2ccccc2)c(O)c1N=Nc1ccccc1 (stereo not drawn) [Compound 5a, 3-Methyl-1-(phenyl(phenylamino)methyl)-4-(phenyldiazenyl)-1H-pyrazol-5-ol]
- IC50 ([1]; Homo sapiens, HepG2, 48 h): 3.46 ± 0.16 µM
- IC50 [2]: 48.7 ± 2.05 µM
- inhibition at 10 µM [3]: 91.7 ± 3.1%
- IC50 [3]: 0.267 ± 0.001 µM
- inhibition at 10 µM [4]: 91 ± 2.1%
- IC50 [4]: 0.311 ± 0.011 µM
- total apoptosis (overall apoptotic cell death) [5, 8]: 38.32%
- necrosis [5, 9]: 4.63%
- Apoptosis Late ([5]; supplement lab report, HepG2): 11.55
- Apoptosis Early ([5]; supplement lab report, HepG2): 26.77
- necrosis [5, 10]: 4.63
- Apoptosis Total ([5]; supplement lab report, HepG2): 42.95
- DNA content %G2/M [6]: 15.61%
- DNA content %S [6]: 35.21%
- DNA content %G0-G1 [6]: 49.18%
- cell cycle phase of growth arrest (Comment) ([6]; listed as s20): cell growth arrest@ G1

SMILES: Cc1nn(C(Nc2ccccc2[N+](=O)[O-])c2ccccc2)c(O)c1N=Nc1ccccc1 (stereo not drawn) [Compound 5b, 3-Methyl-1-((2-nitrophenylamino)(phenyl)methyl)-4-(phenyldiazenyl)-1H-pyrazol-5-ol]
- IC50 ([1]; 48 h): 17.3 ± 0.8 µM
- IC50 ([1]; Homo sapiens, HepG2, 48 h): 17.1 µM
- IC50 [2]: 65.2 ± 2.3 µM

SMILES: Cc1nn(C(Nc2c(C)n(C)n(-c3ccccc3)c2=O)c2ccccc2)c(O)c1N=Nc1ccccc1 (stereo not drawn) [Compound 6a, 4-(((5-Hydroxy-3-methyl-4-(phenyldiazenyl)-1H-pyrazol-1-yl)(phenyl)methyl)amino)-1,5-dimethyl-2-phenyl-1,2-dihydro-3H-pyrazol-3-one]
- IC50 [2]: 75.3 ± 3.3 µM

SMILES: Cc1nn(C(Nc2c(C)n(C)n(-c3ccccc3)c2=O)c2ccccc2)c(O)c1N=Nc1ccccc1[N+](=O)[O-] (stereo not drawn) [Compound 6b, 4-(((5-Hydroxy-3-methyl-4-((2-nitrophenyl)diazenyl)-1H-pyrazol-1-yl)(phenyl)methyl)amino)-1,5-dimethyl-2-phenyl-1,2-dihydro-3H-pyrazol-3-one]
- IC50 ([1]; Homo sapiens, HepG2, 48 h): 2.52 ± 0.12 µM
- IC50 [2]: 60.2 ± 2.54 µM
- inhibition at 10 µM [3]: 93.2 ± 2.9%
- IC50 [3]: 0.2 ± 0.001 µM
- inhibition at 10 µM [4]: 88.7 ± 2.6%
- IC50 [4]: 0.458 ± 0.017 µM
- total apoptosis (overall apoptotic cell death) [5, 8]: 42.9%
- necrosis [5, 9]: 7.54%
- Apoptosis Late ([5]; supplement lab report, HepG2): 14.48
- Apoptosis Early ([5]; supplement lab report, HepG2): 29.17
- necrosis [5, 10]: 7.54
- Apoptosis Total ([5]; supplement lab report, HepG2): 51.19
- cell cycle phase of growth arrest (Comment) [6]: S-phases; also recorded: S phase
- DNA content %G2/M [6]: 12.49%
- DNA content %S [6]: 41.33%
- DNA content %G0-G1 [6]: 46.18%
- cell cycle phase of growth arrest (Comment) ([6]; listed as s31): cell growth arrest@ G1/S

SMILES: COc1ccc(OC)c(NC(=O)c2cc(-c3c[nH]c4ccccc34)n[nH]2)c1 [SI]
- IC50 [7]: 0.6 µM

SMILES: CNC(=O)c1cc(Oc2ccc(NC(=O)Nc3ccc(Cl)c(C(F)(F)F)c3)cc2)ccn1 [Sorafenib, reference compound]
- IC50 [2]: 17 ± 0.72 µM

SMILES: COc1cccc2c1C(=O)c1c(O)c3c(c(O)c1C2=O)C[C@@](O)(C(=O)CO)C[C@@H]3O[C@H]1C[C@H](N)[C@H](O)[C@H](C)O1 [doxorubicin, reference compound]
- IC50 ([1]; Homo sapiens, HepG2, 48 h): 2.05 µM
